Data from patent US9447408B2, “Method of efficiently establishing induced pluripotent stem cells” (Kyoto University, priority 2010, dated 2016).

Assays:
[1] = system: Human dermal fibroblasts (HDF 1616 line); assay: Human iPS cell colony formation, 4 genes introduced, SB202190 added Day 0 or day 5; format: cell-based
Description: Human dermal fibroblasts (HDF 1616 line) were treated using a lentivirus (pLenti6/UbC-Slc7a1) according to the method described by Takahashi, K. et al. in Cell, 131: 861-872 (2007), to express the mouse ecotropic virus receptor Slc7a1 gene. These cells were seeded to a 6-well culture plate (Falcon), previously coated with 0.1% gelatin (Sigma), at 1.0×10^5 cells per well. The following day, the four human genes were introduced using a retrovirus according to the method described by Takahashi, K. et al. in Cell, 131: 861-872 (2007). On day 4 after the infection, 2.0×10^5 cells were seeded to a 100 mm dish, containing previously seeded feeder cells. To determine the effect of a p38 inhibitor, SB202190 was added simultaneously with the infection (Day 0), or on day 5 after the infection, and the efficiency of iPS cell establishment was compared. On day 16 after the infection, iPS cell colonies were counted. The results are shown in the upper panel in FIG. 3. In the context of introduction of the four genes (Oct3/4, Sox2, Klf4, C-Myc), the number of human iPS cell colonies increased with the addition of SB202190 in the initial stage after the infection, compared with the addition of DMSO for control and the addition of SB202190 on day 5 after the infection. The four genes were introduced using a retrovirus in the same manner, but at a different cell density (3×10^4 cells/10 cm dish), with simultaneous addition of SB202190 (Day 0). SB202190 was added also on day 5 after the infection, and the efficiency of iPS cell establishment was compared. On day 16 after the infection, colony sizes were measured. The results are shown in the lower panel in FIG. 3. Even when the cell density was changed, the number of iPS cell colonies increased with the addition of SB202190 along with the four factors (Oct3/4, Sox2, Klf4, C-Myc), compared with the addition of DMSO.

[2] = system: Human dermal fibroblasts (Tig109 line); assay: Human iPS cell colony formation, 3 genes introduced, various p38 inhibitors; format: cell-based; details: 10 μM inhibitor
Description: Human dermal fibroblasts (Tig109 line) were treated using a lentivirus (pLenti6/UbC-Slc7a1) according to the method described by Takahashi, K. et al. in Cell, 131: 861-872 (2007), to express the mouse ecotropic virus receptor Slc7a1 gene. These cells (2×10^5 cells/10 cm dish) were transfected with the four genes using a retrovirus according to the method described by Takahashi, K. et al. in Cell, 131: 861-872 (2007); each compound was added per the schedule shown below. • 1. Oct3/4, Sox2, Klf4, c-Myc, each derived from human, saline • 2. Oct3/4, Sox2, Klf4, c-Myc, each derived from human, DMSO (Day 5-35) • 3. Oct3/4, Sox2, Klf4, c-Myc, each derived from human, SB202190 10 μM (Day 5-20) • 4. Oct3/4, Sox2, Klf4, c-Myc, each derived from human, SB239063 10 μM (Day 5-20) • 5. Oct3/4, Sox2, Klf4, c-Myc, each derived from human, SB202190 10 μM (Day 21-35) • 6. Oct3/4, Sox2, Klf4, c-Myc, each derived from human, SB239063 10 μM (Day 21-35) • 7. Oct3/4, Sox2, Klf4, c-Myc, each derived from human, SB202190 10 μM (Day 5-35) • 8. Oct3/4, Sox2, Klf4, c-Myc, each derived from human, SB239063 10 μM (Day 5-35) Subsequently, three genes (Oct3/4, Sox2, Klf4) were introduced using a retrovirus in the same manner, and the efficiency of iPS cell establishment was compared. • 1. Oct3/4, Sox2, Klf4, each derived from human, saline • 2. Oct3/4, Sox2, Klf4, each derived from human, DMSO (Day 5-35) • 3. […]

Q: Which “number of human iPS cell colonies on day 16 after the infection” value ([1]; 2.0×10^5 cells/100 mm dish, added in the initial stage (Day 0), compared with DMSO and addition on day 5) does the source give for `Oc1ccc(-c2nc(-c3ccc(F)cc3)c(-c3ccncc3)[nH]2)cc1` [SB202190, 4-(4-fluorophenyl)-2-(4-hydroxyphenyl)-5-(4-pyridyl)imidazole] here?
A: Its value is “increased”.

Q: What about the “number of iPS cell colonies on day 16 compared with DMSO” value ([1]; 3×10^4 cells/10 cm dish) of the same compound?
A: The value was “increased”.

Q: And the “efficiency of iPS cell establishment, added on day 5 versus simultaneously with the infection” value ([1]; lower cell density 3×10^4 cells/10 cm dish)?
A: The value was “higher”.

Q: What about the “number of iPS cell colonies on day 40 after the infection compared with physiological saline and DMSO” value [2] of the same compound?
A: Its value is “increased remarkably”.

Q: What about the “number of positive colonies on day 32 after the infection compared with physiological saline and DMSO” value [2] of the same compound?
A: The value was “increased”.
